Reference: paper PMC10086185, “Synthesis, radiolabeling, and evaluation of a (4-quinolinoyl)glycyl-2-cyanopyrrolidine analogue for fibroblast activation protein (FAP) PET imaging” (Frontiers in Bioengineering and Biotechnology, 2023)
Where two headings read alike, the source gives them in different places.

Assays:
FAP = details: cited from earlier work; for EC50: ref Lindner et al., 2018
U87MG cells = test: Cellular uptake of [^18F]3 in U87MG cells; type: cell-based; details: U87 cells; compound 3 10 µM
Method: (§1) Briefly, all cells were divided into the following two groups: A: blocking group and B: vehicle group. All cells were cultured, grouped, and plated (approximately 2*10^6 cells per well) before use. Cells were treated with [^18F]3 (74 KBq) and incubated at 37°C under a 5% CO2 atmosphere. […] Incubated at 37°C for 1 h, the medium from each well was removed, and the cells were washed twice with 1 mL of PBS. The medium and the PBS from each well were combined and counted in a Gamma counter (PerkinElmer Wizard 2470) for radioactivity counts. The cells were then handled with 1 mL of 1 M NaOH, and the lysates were also counted in the Wizard 2470 gamma counter. The uptake ratios for each group were then calculated with this equation: %Dose = […](medium counts + PBS counts + cell lysate counts).

[1] = test system: A549-FAPI cells (human FAP-expressing A549); test: Cellular uptake of [^18F]3 in A549-FAPI cells; type: cell-based; details: compound 3 10 µM
Method: as §1

[2] = test system: A549-FAPI xenograft tumors; test: Micro-PET/CT imaging, A549-FAPI xenograft tumors; type: in vivo, BALB/c nude mice; details: A549-FAPI tumors; pre-injection of compound 3, 2 mg/kg
Method: BALB/c nude mice used in this study were obtained from the Animal Center of Sichuan University. Tumor-bearing mouse models were established by the subcutaneous injection of 100 µL of PBS suspension containing approximately 1*10^6 tumor cells to the body side of the subjects. The tumor volume was monitored every day, and the tumor-bearing mice were ready for imaging once the tumor volume reached 0.5 mm^3 (tumor volume can be calculated by this equation: Volume = 0.5 * long tail * short tail *short tail). Micro-PET/CT imaging studies were performed on the IRIS Micro-PET/CT system (Inviscan SAS, France). Tumor-bearing mice were injected with approximately 11.2–14.8 MBq of [^18F]3 (200 µL) via the tail vein under anaesthetization by isoflurane. Static PET images were obtained at designated time points and were reconstructed with a 3D-OSEM algorithm using a Monte Carlo-based accurate detector model. Then, 170 sec-CT acquisition was conducted with 50 kV, 1 mA X-ray output for attenuation correction and anatomical orientation. ROIs (regions of interest) were drawn on the lung, kidney, liver, and tumor by OsiriX software. SUV (standardized uptake value) of the ROIs was directly obtained from OsiriX for each subject according to this formula: SUV = Voxal value (Bq/mL) * Body weight (kg)/(Decay corrected Dose (Bq) * 1,000 (g/kg)).
BALB/c nude mice used in this study were obtained from the Animal Center of Sichuan university. Tumor-bearing mice model were established by the subcutaneous injection of 100 µL of PBS suspension containing approximately 1*10^6 tumor cells to the body side of the subjects. The tumor volume was monitored every day and the tumor-bearing mice were ready for imaging once the tumor volume reach 0.5 mm^3 (tumor volume can be calculated by this equation: Volume = 0.5 * long tail * short tail *short tail). Micro-PET/CT imaging studies were performed on the IRIS Micro-PET/CT system (Inviscan SAS, France). Tumor-bearing mice were injected with approximately 11.2-14.8 MBq of [^18F]3 (200 µL) via tail vein under anaesthetization by isoflurane. Static PET images were obtained at designated time points and were reconstructed with a 3D-OSEM algorithm using a Monte-Carlo based accurate detector model. A 170 sec-CT acquisition was conducted with 50 kV, 1 mA X-ray output for attenuation correction and anatomical orientation. ROIs (regions of interest) were drawn on lung, kidney, liver and tumor by Osirix software. SUV (standardized uptake value) of the ROIs was directly obtained from Osirix for each subject according to this formula: SUV = Voxal value (Bq/mL) * Body weight (kg)/(Decay corrected Dose (Bq) * 1000 (g/kg)).

[3] = FAP, ref Wang et al., 2022, read-out: IC50
[4] = ref Jansen et al., 2013, Jansen et al., 2014, read-out: FAP IC50

With `N#C[C@@H]1CCCN1C(=O)CNC(=O)c1ccnc2ccc(OCCCN3CCN(C(=O)CN4CCN(CC(=O)O)CCN(CC(=O)O)CCN(CC(=O)O)CC4)CC3)cc12` [FAPI-02] as the compound, how does the EC50 (FAP) read?
Its EC50 is 21 nM.

With `N#C[C@@H]1CC(F)(F)CN1C(=O)CNC(=O)c1ccnc2ccc(OCCCN3CCN(C(=O)CN4CCN(CC(=O)O)CCN(CC(=O)O)CCN(CC(=O)O)CC4)CC3)cc12` [FAPI-04] as the compound, how does the EC50 (FAP) read?
Its EC50 is 6.5 nM.

For `[11CH3]Oc1ccc2nccc(C(=O)NCC(=O)N3CCC[C@H]3C#N)c2c1` [[^11C]RJ001], which IC50 (FAP; [3]) is on record?
The IC50 was 9.2 nM.

For `[11CH3]Oc1ccc2nccc(C(=O)NCC(=O)N3CC(F)(F)C[C@H]3C#N)c2c1` [[^11C]RJ002], which IC50 (FAP; [3]) is on record?
Its IC50 is 8.5 nM.

Which IC50 (FAP; [4]) does the source give for `N#C[C@@H]1CCCN1C(=O)CNC(=O)c1ccnc2ccc(F)cc12` [compound 2] here?
Its IC50 is 10.3 nM.

Which results are given for `N#C[C@@H]1CC(F)(F)CN1C(=O)CNC(=O)c1ccnc2ccc(F)cc12` [compound 3]?
Uptake in blocking group as % of vehicle group (U87MG cells): 79.38%; Uptake in blocking group as % of vehicle group [1]: 52.34%; Inhibition of tumor SUV [2]: over 50%; Inhibitory activity against FAP (FAP; ref previous SAR studies): nanomolar activity
